Data on one molecule can be found in patent publication US10278396B2, “Synergistic Bacillus thuringiensis subsp. kurstaki and cyantraniliprole mixtures for diamondback moth, beet armyworm, sugarcane borer, and soybean looper control” (priority 2016, dated 2019).

The subject of one assay is diamondback moth larvae. In words: leaf dip test, diamondback moth larvae. It is filed as in vivo. Conditions: Plutella xylostella, foliar, Btk 0.54 ppm, cyantraniliprole 0.1 ppm, mixture 0.54 ppm + 0.1 ppm, read-out: % Efficacy. On the procedure: (§1) For these tests, standardized laboratory leaf dip methods were used to inoculate plant material with treatment(s). Dry, treated leaves were placed into Petri dishes (100×25 mm) containing filter paper wetted with 500 μl of distilled H2O (“dH2O”). Each dish was then infested with between 5 and 10 larvae, dependent on species. Efficacy ratings were taken at specified intervals. Synergy ratings were calculated for each test.
In this study, the response of diamondback moth larvae to synergistic amounts of Bacillus thuringiensis subsp. kurstaki (“Btk”) and cyantraniliprole was observed.
% Cexp=A+B−(AB/100), where % Cexp is the expected efficacy and “in which A and B are the control levels given by the single [insecticides]. […] Adopting a conservative approach, Applicant determined synergy to be present at ratios of ≥1.15. […]
In order to determine synergy, rates below normal field rate ranges must be used. If normal field rate ranges are used, all of the larvae would die (combining a lethal or near lethal dose of Bacillus thuringiensis subsp. kurstaki with a lethal dose of cyantraniliprole would most likely lead to larvae death) in every treatment and synergy would not be able to be determined. […]

Assay [1] concerns southwestern corn borer larvae. The assay can be described thus: leaf dip test, southwestern corn borer larvae. It is filed as in vivo, Diatraea grandiosella. The settings on record: foliar, Btk 0.54 ppm, cyantraniliprole 0.1 ppm, mixture 0.54 ppm + 0.1 ppm, read-out: % Efficacy. As to the method:
as §1
(§2) % Cexp=A+B−(AB/100), where % Cexp is the expected efficacy and “in which A and B are the control levels given by the single [insecticides]. If the ratio between the experimentally observed efficacy of the mixture Cobs and the expected efficacy of the mixture is greater than 1, synergistic interactions are present in the mixture.” (Gisi, Synergisitic Interaction of Fungicides in Mixtures, The American Phytopathological Society, 86:11, 1273-1279, 1996). Adopting a conservative approach, Applicant determined synergy to be present at ratios of ≥1.15.
In this study, the response of southwestern corn borer larvae to Bacillus thuringiensis subsp. kurstaki and cyantraniliprole was observed.
Bacillus thuringiensis subsp. kurstaki was applied at a concentration of 0.54 ppm (0.54 μg/ml). Cyantraniliprole was applied at a concentration of 0.1 ppm (0.1 μg/ml). […]

Another assay concerns corn earworm larvae. The assay can be described thus: leaf dip test, corn earworm larvae. It is filed as in vivo. The settings on record: Helicoverpa zea, foliar, Btk 0.54 ppm, cyantraniliprole 10.0 ppm, mixture 0.54 ppm + 10.0 ppm, read-out: % Efficacy. As to the method:
as §1, §2
In this study, the response of corn earworm larvae to Bacillus thuringiensis subsp. kurstaki and cyantraniliprole was observed.
Bacillus thuringiensis subsp. kurstaki was applied at a concentration of 0.54 ppm (0.54 μg/ml). Cyantraniliprole was applied at a concentration of 10.0 ppm (10.0 μg/ml). […]

The subject of a further assay is cabbage looper larvae. The assay can be described thus: leaf dip test, cabbage looper larvae. Conditions: Trichoplusia ni, foliar, Btk 0.54 ppm, cyantraniliprole 0.50 ppm, mixture 0.54 ppm + 0.50 ppm, read-out: % Efficacy. Format: in vivo. On the procedure: as §1, §2
In this study, the response of cabbage looper larvae to Bacillus thuringiensis subsp. kurstaki and cyantraniliprole was observed.
Bacillus thuringiensis subsp. kurstaki was applied at a concentration of 0.54 ppm (0.54 μg/ml). Cyantraniliprole was applied at a concentration of 0.50 ppm (0.50 μg/ml). […]

A further assay has as its system beet armyworm larvae. In words: leaf dip test, beet armyworm larvae. It is filed as in vivo. The settings on record: Spodoptera exigua, foliar, Btk 0.54 ppm, cyantraniliprole 1.0 ppm, mixture 0.54 ppm + 1.0 ppm, read-out: % Efficacy. As to the method:
as §1, §2
In this study, the response of beet armyworm larvae to synergistic amounts of Bacillus thuringiensis subsp. kurstaki and cyantraniliprole was observed.
(§3) Bacillus thuringiensis subsp. kurstaki was applied at a concentration of 0.54 ppm (0.54 μg/ml). Cyantraniliprole was applied at a concentration of 1.0 ppm (1.0 μg/ml). […]

In another assay the test system is sugarcane borer larvae. The assay can be described thus: leaf dip test, sugarcane borer larvae. It is filed as in vivo. Conditions: Diatraea saccharalis, foliar, Btk 0.54 ppm, cyantraniliprole 1.0 ppm, mixture 0.54 ppm + 1.0 ppm, read-out: % Efficacy. On the procedure: as §1, §2
In this study, the response of sugarcane borer larvae to synergistic amounts of Bacillus thuringiensis subsp. kurstaki and cyantraniliprole was observed.
as §3

In another assay the test system is soybean looper larvae. In words: leaf dip test, soybean looper larvae. Format: in vivo, Chrysodeixis includens. Conditions: foliar, Btk 0.54 ppm, cyantraniliprole 1.0 ppm, mixture 0.54 ppm + 1.0 ppm, read-out: % Efficacy. On the procedure: as §1, §2
In this study, the response of soybean looper larvae to synergistic amounts of Bacillus thuringiensis subsp. kurstaki and cyantraniliprole was observed.
as §3

Like-named read-outs stand apart in the source and are kept apart here.

As to `CNC(=O)c1cc(C#N)cc(C)c1NC(=O)c1cc(Br)nn1-c1ncccc1Cl` [Cyantraniliprole, 3-Bromo-1-(3-chloro-2-pyridinyl)-N-[4-cyano-2-methyl-6-(methylcarbamoyl)phenyl]-1H-pyrazole-5-carboxamide], the Emax at 0.1 ppm worked out at 16% in the assay on diamondback moth larvae (24 h after treatment), 47% in the assay on diamondback moth larvae (48 h after treatment), 23% in assay [1] (24 h after treatment) and 39% in assay [1] (48 h after treatment). Besides, the Emax at 10 ppm in the assay on corn earworm larvae (24 h after treatment) turned out to be 29%; in the assay on corn earworm larvae (48 h after treatment), 33%. For the same molecule, the Emax at 0.5 ppm with cabbage looper larvae (24 h after treatment) was 15%; in the assay with cabbage looper larvae (48 h after treatment) it was 51%. The Emax at 1 ppm worked out at 20% with beet armyworm larvae (24 h after treatment); 37% in the assay with beet armyworm larvae (48 h after treatment); 30% in the assay with sugarcane borer larvae (24 h after treatment); 32% in the assay on sugarcane borer larvae (48 h after treatment); 6% in the assay on soybean looper larvae (24 h after treatment); 10% in the assay with soybean looper larvae (48 h after treatment).
